Some results are limits rather than exact numbers.

The source of these data is US8426447B2, “Spiro-tricyclic ring compounds as beta-secretase modulators and methods of use” (Amgen Inc., priority 2008, dated 2013).

In assay [1] the target is T1, BACE1 (Homo sapiens, UniProt P56817). In words: In Vitro Enzymatic BACE FRET (Fluorescence Resonance Energy Transfer) Assay. Type of assay: biochemical. As to conditions: read-out: BACE1 FRET assay. In short, it runs like this: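 Run in 0.05 M acetate pH 4.2 with 10% DMSO final and 100 uM genapol detergent below its CMC. Reaction was started with 50 nM FRET peptide substrate (fluorophore and quencher flanking the BACE cleavage site), incubated one hour, stopped with Tris to neutral pH, and fluorescence read.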

The target in assay [2] is T1, BACE1. In words: In Vitro BACE Cell-based Assay (HEK cell assay): Aβ40 in conditioned medium of cells stably expressing Amyloid Precursor Protein, sandwich ELISA. As to conditions: read-out: HEK cell assay. In a few lines: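 First, APP-stable cells grow 24 h at 37° C., 5% CO2. Next, test compounds are added for 24 h (10 doses, 0.1% DMSO). Finally, medium Aβ40 is determined by pAb40/6E10 sandwich ELISA with Europium TRF, and IC50 is calculated.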
Background: ELISA stands for enzyme-linked immunosorbent assay.

Where [3] appears, read: in vitro BACE FRET enzyme assay, IC50 class symbols.
The mark [4] stands for this setting: HEK cell-based assay, Aβ40 in conditioned medium, IC50 class symbols.

T1 sequence (P56817 46-501, species assumed): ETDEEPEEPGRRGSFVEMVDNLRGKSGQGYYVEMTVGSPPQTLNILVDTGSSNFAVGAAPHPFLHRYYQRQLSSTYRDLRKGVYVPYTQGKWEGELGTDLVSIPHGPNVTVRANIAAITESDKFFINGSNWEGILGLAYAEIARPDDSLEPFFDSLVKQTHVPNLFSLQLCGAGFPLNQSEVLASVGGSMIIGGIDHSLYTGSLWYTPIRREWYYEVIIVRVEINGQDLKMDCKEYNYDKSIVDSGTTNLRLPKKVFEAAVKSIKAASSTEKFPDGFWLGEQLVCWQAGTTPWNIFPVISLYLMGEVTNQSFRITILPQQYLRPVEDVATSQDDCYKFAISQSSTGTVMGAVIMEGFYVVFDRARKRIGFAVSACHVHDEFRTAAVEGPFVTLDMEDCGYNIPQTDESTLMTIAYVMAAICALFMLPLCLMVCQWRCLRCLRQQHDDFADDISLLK

In the case of `N#Cc1cccc(-c2ccc3c(c2)[C@]2(COC(N)=N2)c2cc(-c4cccnc4)ccc2O3)c1` [compound 961], the IC50 at BACE1 [1] and at BACE1 [2] was under 0.1 µM in each case.

On to `CC1(C)C=C(c2cc3c(cc2F)Oc2ccc(-c4cncnc4)cc2[C@@]32COC(N)=N2)CCO1` [compound 502], for which the IC50 at BACE1 [1] and at BACE1 [2] (HEK cells) was under 0.1 µM each time.

Regarding `COc1ccc2c(c1)[C@]1(COC(N)=N1)c1cc(-c3cncnc3)cnc1O2` [Example 54, (5R)-7-methoxy-3-(5-pyrimidinyl)spiro[chromeno[2,3-b]pyridine-5,4′-[1,3]oxazol]-2′-amine], the IC50 on BACE1 [1] (Table II) was 1 to 5 µM; at BACE1 [2] (Table II, Aβ40, 24 h incubation) it was over 5 µM.

For the compound `NC1=NC2(CO1)c1cc(C3=CCOCC3)ccc1Oc1ccc(C3=CCOCC3)cc12` [compound 757], the IC50 at BACE1 [1] and at BACE1 [2] was 0.1 to 1 µM each time.

In the case of `CC(C)(C)COc1ccc2c(c1)[C@]1(COC(N)=N1)c1cc(C(=O)NC3CCC3)ccc1O2` [compound 702], the IC50 on BACE1 [1] was under 0.1 µM; at BACE1 [2] it was 0.1 to 1 µM.

As for `NC1=N[C@]2(CO1)c1cc(C3=CCOCC3)ccc1Oc1cnc(Cl)cc12` [compound 499], the values for the IC50 at BACE1 [1] and at BACE1 [2] (HEK cells) were 1 to 5 µM and over 5 µM, respectively.

As to `CC(C)(C)COc1ccc2c(n1)[C@]1(COC(N)=N1)c1cc(Br)ccc1O2` [compound 735], the IC50 at BACE1 [1] and at BACE1 [2] was 1 to 5 µM each time.

`Cc1cc(-c2ccc3c(c2)[C@]2(COC(N)=N2)c2cc(-c4cccnc4)ccc2O3)cc(=O)o1` [compound 390]: the IC50 on BACE1 [1] (setting [3]) and on BACE1 [2] (setting [4]) was under 0.1 µM throughout.

Take `CC(C)(F)COc1ccc2c(c1)[C@]1(COC(N)=N1)c1cc(-c3cccnc3)cnc1O2` [compound 177]: the IC50 at BACE1 [1] (Table III, IC50's in uM ranges) was under 0.1 µM; on BACE1 [2] (Table III, IC50's in uM ranges), under 0.1 µM.

Take `N#Cc1ccc(-c2ccc3c(c2)[C@]2(COC(N)=N2)c2cc(-c4cccnc4)ccc2O3)cc1` [compound 204]: the IC50 at BACE1 [1] (Table III, IC50's in uM ranges) was under 0.1 µM; on BACE1 [2] (Table III, IC50's in uM ranges), under 0.1 µM.

As for `COc1ccc2c(c1)[C@]1(COC(N)=N1)c1cc(-c3cc(Cl)ccc3F)ccc1O2` [Example 12, (4S)-2′-(5-chloro-2-fluorophenyl)-7′-methoxyspiro[1,3-oxazole-4,9′-xanthen]-2-amine trifluoroacetic acid], the IC50 is 0.1 to 1 µM on BACE1 [1] (Table 1) and over 5 µM at BACE1 [2] (Table 1, Aβ40, 24 h incubation).

Regarding `CC1(C)C=C(c2cnc3c(c2)[C@]2(COC(N)=N2)c2cc(-c4cccnc4)ccc2O3)CCO1` [compound 481], the IC50 at BACE1 [1] and on BACE1 [2] (HEK cells) was under 0.1 µM each time.

In the case of `NC1=N[C@@]2(CO1)c1cc(-c3cccnc3F)ccc1Oc1ccc(-c3ccnc(F)c3)nc12` [compound 399], the IC50 on BACE1 [1] (setting [3]) is under 0.1 µM; at BACE1 [2] (setting [4]), 0.1 to 1 µM.

With `CC(C)(O)C#Cc1ccc2c(c1)[C@@]1(COC(N)=N1)c1cc(Br)cnc1O2` [compound 173], the IC50 at BACE1 [1] (Table III, IC50's in uM ranges) was 1 to 5 µM; on BACE1 [2] (Table III, IC50's in uM ranges) it was over 5 µM.

On to `NC1=N[C@@]2(CO1)c1cc(-c3cccnc3)ccc1Oc1ccc(-c3cscn3)cc12` [compound 671], for which the IC50 on BACE1 [1] and at BACE1 [2] was under 0.1 µM throughout.

For the compound `COCC[C@@H]1CN(c2ccc3c(c2)[C@]2(COC(N)=N2)c2cc(-c4cccnc4)ccc2O3)CCO1` [compound 421], the IC50 at BACE1 [1] and at BACE1 [2] (HEK cells) was 0.1 to 1 µM each time.

`NC1=N[C@@]2(CO1)c1cc(-c3cncnc3)ccc1Oc1cnc(Cl)cc12` [compound 500]: the IC50 at BACE1 [1] lay in the range of 0.1 to 1 µM; on BACE1 [2] (HEK cells) it was 1 to 5 µM.

Regarding `NC1=N[C@]2(CO1)c1ccccc1Oc1ccc(-c3cc4ccccc4[nH]3)cc12` [compound 567], the IC50 is 1 to 5 µM on BACE1 [1] (Table IV, class symbols) and over 5 µM on BACE1 [2] (Table IV, class symbols).

As to `CC(C)(C)COc1ccc2c(c1)[C@]1(COC(N)=N1)c1cc(-c3ncccn3)ccc1O2` [compound 885], the IC50 at BACE1 [1] (Table IV, class symbols) is 0.1 to 1 µM; on BACE1 [2] (Table IV, class symbols) it was 1 to 5 µM.

Consider `NC1=N[C@]2(CO1)c1cc(C3=CCOCC3)ccc1Oc1cc(F)c(-c3cncnc3)cc12` [compound 529], for which the IC50 at BACE1 [1] and at BACE1 [2] (HEK cells) was under 0.1 µM each time.

For `NC1=N[C@]2(CO1)c1cc(-c3ccccc3)ccc1Oc1ncc(C3=CCOCC3)cc12` [compound 718], the IC50 on BACE1 [1] and at BACE1 [2] was 1 to 5 µM throughout.

As to `COc1ccc2c(c1)[C@]1(COC(N)=N1)c1cc(NC(=O)c3ccccc3)ccc1O2` [compound 616], the IC50 on BACE1 [1] (Table IV, class symbols) was 1 to 5 µM; at BACE1 [2] (Table IV, class symbols) it was 1 to 5 µM.

Regarding `Cc1ccc2c(c1)Oc1ccc(-c3cccc(Cl)c3)cc1C21COC(N)=N1` (stereo not shown) [Example 25, 2′-(3-chlorophenyl)-6′-methylspiro[1,3-oxazole-4,9′-xanthen]-2-amine], the IC50 on BACE1 [1] (Table 1) was over 5 µM; at BACE1 [2] (Table 1, Aβ40, 24 h incubation) it was 1 to 5 µM.

In the case of `CC(C)(O)CCc1ccc2c(c1)[C@]1(COC(N)=N1)c1cc(-c3cccnc3)ccc1O2` [compound 193], the IC50 at BACE1 [1] (Table III, IC50's in uM ranges) is under 0.1 µM; at BACE1 [2] (Table III, IC50's in uM ranges) it was under 0.1 µM.

With `NC1=N[C@]2(CO1)c1ccccc1Oc1ccc(-c3cncc4ccccc34)cc12` [compound 629], the IC50 is 1 to 5 µM at BACE1 [1] (Table IV, class symbols) and over 5 µM at BACE1 [2] (Table IV, class symbols).

On to `CC(C)(C#N)COc1cnc2c(c1)[C@]1(COC(N)=N1)c1cc(-c3ccccc3F)ccc1O2` [compound 408], for which the IC50 on BACE1 [1] (setting [3]) and at BACE1 [2] (setting [4]) was under 0.1 µM each time.

In the case of `COc1ccc2c(c1)[C@@]1(COC(N)=N1)c1cc(-c3ccc(OCC4CC4)nc3)cnc1O2` [compound 668], the IC50 at BACE1 [1] and at BACE1 [2] was 0.1 to 1 µM throughout.

For `CC(C)(C)COc1cnc2c(c1)[C@]1(COC(N)=N1)c1cc(-c3ccccc3)ccc1O2` [compound 469], the IC50 was under 0.1 µM on BACE1 [1] and 0.1 to 1 µM on BACE1 [2] (HEK cells).

As to `NC1=N[C@]2(CO1)c1cc(OCC(C(F)(F)F)C(F)(F)F)ccc1Oc1ccc(-c3cncnc3)cc12` [compound 163], the IC50 on BACE1 [1] (Table III, IC50's in uM ranges) is 0.1 to 1 µM; at BACE1 [2] (Table III, IC50's in uM ranges), 0.1 to 1 µM.

Regarding `CC(C)(C)COc1ccc2c(c1)[C@]1(CSC(N)=N1)c1cc(-c3cncnc3)ccc1O2` [compound 720], the IC50 on BACE1 [1] and on BACE1 [2] was under 0.1 µM in each case.

`NC1=N[C@]2(CO1)c1cc(-c3ccc(F)cc3)ccc1Oc1ncc(C3=CCOCC3)cc12` [compound 691]: the IC50 at BACE1 [1] and on BACE1 [2] was 1 to 5 µM in each case.

For the compound `Cn1cc(-c2ccc3c(c2)[C@]2(COC(N)=N2)c2cc(-c4cccnc4F)ccc2O3)cn1` [compound 642], the IC50 is under 0.1 µM on BACE1 [1] (Table IV, class symbols) and under 0.1 µM on BACE1 [2] (Table IV, class symbols).

Take `NC1=N[C@@]2(CO1)c1cc(-c3ccccc3)ccc1Oc1ncc(N3C[C@@H]4C[C@H]3CO4)cc12` [compound 454]: the IC50 on BACE1 [1] and at BACE1 [2] (HEK cells) was under 0.1 µM throughout.

As to `CN1CCN(c2ccc3c(c2)[C@@]2(COC(N)=N2)c2cc(OCC(C)(C)C)ccc2O3)CC1` [compound 812], the IC50 at BACE1 [1] (Table IV, class symbols) is 1 to 5 µM; on BACE1 [2] (Table IV, class symbols), 0.1 to 1 µM.

Regarding `NC1=N[C@@]2(CO1)c1cc(-c3cccnc3N3CCOCC3)ccc1Oc1ccc(N3CCOCC3)cc12` [compound 391], the IC50 on BACE1 [1] (setting [3]) lay in the range of 0.1 to 1 µM; on BACE1 [2] (setting [4]), 1 to 5 µM.

`CC(C)(C)OC(=O)Cc1ccc2c(c1)[C@]1(COC(N)=N1)c1cc(-c3cncnc3)ccc1O2` [compound 765]: the IC50 at BACE1 [1] and at BACE1 [2] was 0.1 to 1 µM in each case.

As to `NC1=N[C@@]2(CO1)c1cc(-c3cccnc3)ccc1Oc1ccc(-c3nccs3)cc12` [compound 666], the IC50 at BACE1 [1] and at BACE1 [2] was under 0.1 µM each time.

Regarding `NC1=N[C@@]2(CO1)c1cc(-c3cccnc3)ccc1Oc1cnc(/C=C/C3CC3)cc12` [compound 728], the IC50 at BACE1 [1] and at BACE1 [2] was under 0.1 µM throughout.
